Patent publication US5656440A, “Nucleotide sequences coding for the bovine β3 -adrenergic receptor (ARβ3) and their applications” (Virbac, priority 1993, dated 1997)
Where two headings read alike, the source gives them in different places.

Tests used:
bovine ARβ3 = assay: binding of [^125 I]cyanopindolol to transfected cells stably expressing ARβ3
Text: Stable colonies are screened for their capacity to bind specifically to [^125 I]cyanopindolol and also for their capacity to stimulate adenylate cyclase in the presence of isoproterenol, in accordance with protocol described in TATE et al., Eur. J. Biochem., 191, 196, 357-361.

bovine ARβ3 receptor [1] = biological target: T1, bovine ARβ3 receptor (Bos taurus, UniProt P46626); assay: competitive binding of ligands against [^125 I]cyanopindolol on intact CHO cells, bovine receptor (clone 62-26)
T1 construct: to liberate the 1598-base pair fragment containing the coding region of the bovine β3 gene; expressed in transfected cells
Method: Reaction is stopped by dilution with ice-cold PBS, the cells are filtered off and the radioactivity is measured in a gamma counter. The results were analysed using Graph-Pad.COPYRGT. software.

bovine ARβ3 receptor [2] = biological target: T1, bovine ARβ3 receptor; assay: adenylate cyclase activation (cAMP accumulation) in CHO cells, bovine receptor (clone 62-26); format: cell-based; set-up: Emax: dose or concentration left out as unconfirmed; conditions: for Emax: CHO; for Emax / Emax at 100 µM: 0.5 h, read-out: Accumul. cAMP IA (intrinsic activity)
Method: Briefly, preconfluent cells in six-well plates (0.6×10^6 cells/well) are placed in contact or otherwise with increasing doses of ligands for 30 minutes at 37° C. Reaction is stopped by washing in PBS at 4° C. and adding 500 μl of 1N NaOH. After centrifugation and neutralization with 1N acetic acid, the cell lysates are recovered and the total amount of cAMP accumulated is determined using a commercial assay kit.

mouse ARβ3 receptor [3] = conditions: Mouse RAβ3-CHO; read-out: Binding Ki; cited from earlier work
mouse ARβ3 receptor [4] = conditions: cited from earlier work; for Accumul. cAMP IA (intrinsic activity) / EC50: Mouse RAβ3-CHO; for Accumul. cAMP IA (intrinsic activity): ratio of effect of ligand at 10^-4 M to effect of isoproterenol at 10^-4 M, 100 µM; for EC50: read-out: Accumul. cAMP Kact (adenylate cyclase activation constant); for functional character (agonist/antagonist): mouse ARβ3
human ARβ3 receptor [5] = conditions: Human RAβ3-CHO; read-out: Binding Ki; cited from earlier work
human ARβ3 receptor [6] = conditions: cited from earlier work; for Accumul. cAMP IA (intrinsic activity) / EC50: Human RAβ3-CHO; for Accumul. cAMP IA (intrinsic activity): ratio of effect of ligand at 10^-4 M to effect of isoproterenol at 10^-4 M, 100 µM; for EC50: read-out: Accumul. cAMP Kact (adenylate cyclase activation constant); for functional character (agonist/antagonist): human ARβ3
β1 -, β2 - and β3 -AR = conditions: β1, β2, β3 subtypes; cited from earlier work
[7] = BovineRAβ3-CHO, 0.5 nM [^125 I]cyanopindolol, 30 minutes at 37° C., read-out: Binding Ki
[8] = BovineRAβ3-CHO, 30 minutes at 37° C., read-out: Accumul. cAMP Kact (adenylate cyclase activation constant)
[9] = BovineRAβ3-CHO, ratio of effect of ligand at 10^-4 M to effect of isoproterenol at 10^-4 M

T1 sequence (P46626 whole entry, the tested form may be a part): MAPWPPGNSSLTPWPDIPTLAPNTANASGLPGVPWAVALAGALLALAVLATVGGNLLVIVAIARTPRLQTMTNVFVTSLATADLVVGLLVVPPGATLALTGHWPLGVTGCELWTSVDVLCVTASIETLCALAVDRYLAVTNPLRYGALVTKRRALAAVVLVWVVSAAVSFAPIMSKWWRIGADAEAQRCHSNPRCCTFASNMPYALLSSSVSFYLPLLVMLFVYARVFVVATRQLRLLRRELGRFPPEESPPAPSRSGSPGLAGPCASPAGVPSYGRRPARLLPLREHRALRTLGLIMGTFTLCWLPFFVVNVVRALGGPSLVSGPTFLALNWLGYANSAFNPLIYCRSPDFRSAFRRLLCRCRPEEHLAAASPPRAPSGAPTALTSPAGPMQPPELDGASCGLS

Row | SMILES | binding affinity compared to ARβ3 in man or in mouse (bovine ARβ3) | Ki (bovine ARβ3 receptor [1]; [7]) | EC50 (bovine ARβ3 receptor [2]; [8]) | Emax (bovine ARβ3 receptor [2]) | Ki (mouse ARβ3 receptor [3]) | Accumul. cAMP IA (intrinsic activity) (mouse ARβ3 receptor [4]) | EC50 (mouse ARβ3 receptor [4]) | Ki (human ARβ3 receptor [5]) | Accumul. cAMP IA (intrinsic activity) (human ARβ3 receptor [6]) | EC50 (human ARβ3 receptor [6]) | described agonist/antagonist class (β1 -, β2 - and β3 -AR) | Ki (bovine ARβ3 receptor [1]) | EC50 (bovine ARβ3 receptor [2]) | Emax at 100 µM (bovine ARβ3 receptor [2]; [9]) | functional character (agonist/antagonist) (mouse ARβ3 receptor [4]) | functional character (agonist/antagonist) (human ARβ3 receptor [6]) | functional character (agonist/antagonist) (bovine ARβ3 receptor [2]; bovine ARβ3) | functional character (agonist/antagonist) (mouse ARβ3 receptor [4]; listed as bupranolol) | functional character (agonist/antagonist) (human ARβ3 receptor [6]; listed as bupranolol) | Accumul. cAMP IA (intrinsic activity) (bovine ARβ3 receptor [2]; BovineRAβ3-CHO, ratio of effect of ligand at 10^-4 M to effect of isoproterenol at 10^-4 M, 30 min, 100 µM)
1 | CC(C)(C)NCC(O)COc1cccc2[nH]c(C#N)c([125I])c12 (stereo not drawn) [[^125 I]cyanopindolol] | affinity equivalent to that of the corresponding ARβ3 in man or in mouse |  |  |  |  |  |  |  |  |  |  |  |  |  |  |  |  |  |  | 
2 | CNC[C@H](O)c1ccc(O)c(O)c1 [(- ) epinephrine, (-)-epinephrine] |  | 11.1 µM | 0.0507 µM | 80 ± 30% | 4.6 µM | 0.91 ± 0.03 | 0.023 ± 0.0003 µM | 20.7 µM | 1.00 ± 0.04 | 0.049 ± 0.005 µM | β1 -, β2 - and β3 -AR-receptor agonists |  |  |  |  |  |  |  |  | 
3 | NC[C@H](O)c1ccc(O)c(O)c1 [(-) norepinephrine, (-)-norepinephrine] |  |  |  | 100 ± 50% | 1.84 µM | 1.06 ± 0.06 | 0.013 ± 0.004 µM | 0.475 ± 0.075 µM | 1.00 | 0.00632 ± 0.0007 µM | β1 -, β2 - and β3 -AR-receptor agonists | 0.423 ± 0.255 µM | 0.054 ± 0.0043 µM |  |  |  |  |  |  | 
4 | C[C@H](Cc1ccc(OCC(=O)O)cc1)NC[C@H](O)c1cccc(Cl)c1 (relative stereo) [BRL 37344] |  |  |  | 84 ± 10% | 0.29 ± 0.136 µM | 1.07 ± 0.08 | 0.0004 ± 0.0001 µM | 0.287 ± 0.092 µM | 1.11 ± 0.12 | 0.015 ± 0.003 µM | β1 -, β2 - and β3 -AR-receptor agonists | 0.00213 ± 0.0014 µM | 0.0003 µM |  |  |  |  |  |  | 
5 | CC(C)(Cc1c[nH]c2ccccc12)NCC(O)COc1ccccc1C#N (stereo not drawn) [Bucindolol, bucindolol] |  | 0.073 ± 0.042 µM | 0.0128 µM |  | 0.021 ± 0.005 µM | 1.11 ± 0.06 | 0.04 ± 0.014 µM | 0.023 ± 0.01 µM | 1.01 ± 0.10 | 0.007 ± 0.0012 µM | specific for the ARβ3 receptor (β1 -, β2 -AR antagonists) |  |  | 99 ± 10% |  |  |  |  |  | 
6 | CC(C)NCC(O)c1ccc(O)c(O)c1 (single isomer, unassigned; (-)) [(-) isproterenol, (-)-iso-proterenol] |  |  |  | 90 ± 10% |  |  |  | 0.62 µM |  |  | β1 -, β2 - and β3 -AR-receptor agonists | 0.084 ± 0.081 µM | 0.014 ± 0.002 µM |  |  |  |  |  |  | 
7 | CC(C)NC[C@H](O)COc1cccc2ccccc12 [(- ) propranolol, (-)-propranolol] |  |  |  |  |  |  |  |  | 0.51 ± 0.12 |  |  |  |  |  | antagonist | partial agonist |  |  |  | 
8 | CC(C)(C)NCC(O)COc1cccc2[nH]c(=O)[nH]c12 (stereo not drawn) [CGP 12177A] |  | 0.218 ± 0.161 µM | 0.00141 µM |  | 0.152 ± 0.019 µM |  |  | 0.088 ± 0.022 µM | 0.68 ± 0.02 | 0.139 ± 0.044 µM | specific for the ARβ3 receptor (β1 -, β2 -AR antagonists) |  |  | 93 ± 20% |  |  |  |  |  | 
9 | Cc1ccc(Cl)c(OCC(O)CNC(C)(C)C)c1 (single isomer, unassigned; (-)) [(-) bupranolol, bupranolol] |  | 0.085 ± 0.04 µM | 0.507 µM |  | 0.042 ± 0.019 µM |  |  | 0.05 ± 0.014 µM |  |  | antagonist of the three subtypes of receptor |  |  | 34 ± 1% | antagonist | antagonist | partial agonist | potent antagonist | potent antagonist | 
10 | O=C(O)COc1ccc(OCCNCC(O)COc2ccccc2)cc1 (stereo not drawn) [ICI 201651] |  | 0.0277 ± 0.024 µM | 0.0011 µM |  | 0.239 ± 0.104 µM | 1.02 ± 0.02 | 0.015 ± 0.001 µM | 0.085 ± 0.012 µM | 1.14 ± 0.14 | 0.02 ± 0.009 µM | specific for the ARβ3 receptor (β1 -, β2 -AR antagonists) |  |  |  |  |  |  |  |  | 0.85 ± 0.1
